# Assay results from US12575567B2, “Fungicidal compositions” (priority 2020, dated 2026).
# Values joined by “and” are separate entries in the source; they are usually repeats but may differ in a detail not shown here. Identical values can stand only once. Numbered stars: 1 amine (or outer) side, 2 acyl side, 3 side chain; on linkers, the order of the positions; unused ones are H or OH. Square brackets hold non-standard residues; d marks the D form. Peptide text beside a SMILES is read from it. X1 = CC[C@@H](C)[C@@H](O[*:1])C(=O)[*:2]; NMeVal(β-OH) = CN[C@H](C(=O)O)C(C)(C)O; NMeF = CN[C@@H](Cc1ccccc1)C(=O)O; aIle = CC[C@@H](C)[C@H](N)C(=O)O; NMeV = CN[C@H](C(=O)O)C(C)C
# How the values were obtained:
# Alternaria solani = experiment: Liquid culture test in well plates, Alternaria solani (Early Blight of Tomato/Potato), Example 1-2; assay type: cell-based; conditions: 48 hours; for (A) inhibition: Aureobasidin A alone
# Procedure: Mycelia fragments or conidia suspensions of a fungus, prepared either freshly from liquid cultures of the fungus or from cryogenic storage, are directly mixed into nutrient broth. DMSO solutions of the test compound (max. 10 mg/mL) is diluted with 0.025% Tween20 by factor 50 and 10 μL of this solution is pipetted into a microtiter plate (96-well format). […] The test plates are incubated in the dark at 24° C. and 96% relative humidity (rh). […]
# Conidia of the fungus from cryogenic storage were directly mixed into nutrient broth (PDB potato dextrose broth). After placing a DMSO solution of the test compositions into a microtiter plate (96-well format) the nutrient broth containing the fungal spores was added.
# Botrytis cinerea = experiment: Liquid culture test in well plates, Botrytis cinerea (Gray Mould), Example 1-1; assay type: cell-based; conditions: 72 hours; for (A) inhibition: Aureobasidin A alone
# Procedure: Mycelia fragments or conidia suspensions of a fungus, prepared either freshly from liquid cultures of the fungus or from cryogenic storage, are directly mixed into nutrient broth. DMSO solutions of the test compound (max. 10 mg/mL) is diluted with 0.025% Tween20 by factor 50 and 10 μL of this solution is pipetted into a microtiter plate (96-well format). […] The test plates are incubated in the dark at 24° C. and 96% relative humidity (rh). The inhibition of fungal growth is determined photometrically and visually after 3-7 days, depending on the pathosystem, and percent antifungal activity relative to the untreated check is calculated.
# Conidia of the fungus from cryogenic storage were directly mixed into nutrient broth (PDB potato dextrose broth). After placing a DMSO solution of the test compositions into a microtiter plate (96-well format), the nutrient broth containing the fungal spores was added.
# [1] = Alternaria solani, component (B) alone
# [2] = component (B) alone, 0.0125 ppm
# [3] = component (B) alone, 0.0250 ppm
# [4] = component (B) alone, 0.0031 ppm
# [5] = component (B) alone, 0.0016 ppm
# [6] = component (B) alone, 0.1250 ppm
smiles,measurement,setting,value
"CON=C(C(=O)OC)c1ccccc1CON=C(C)c1cccc(C(F)(F)F)c1 [Trifloxystrobin, trifloxystrobin, reference compound]",inhibition at […],"Alternaria solani; Alternaria solani, component (B) alone, 0.0078 ppm",44%
same,inhibition at 0.0313 ppm,Alternaria solani; [1],71%
"Cc1cccc(-n2nnn(C)c2=O)c1COc1ccn(-c2ccc(Cl)cc2)n1 [Metyltetrapole, metyltetrapole]",(B) inhibition,Alternaria solani; [2],73%
same,(B) inhibition,Botrytis cinerea; [2],43%
same,(B) inhibition,Botrytis cinerea; [3],56%
"CON(C(=O)c1cn(C)nc1C(F)F)C(C)Cc1c(Cl)cc(Cl)cc1Cl (stereo not shown) [Pydiflumetofen, pydiflumetofen, reference compound]",(B) inhibition,"Alternaria solani; component (B) alone, 0.0008 ppm",28%
same,(B) inhibition,Alternaria solani; [4],71%
same,(B) inhibition,Botrytis cinerea; [5],27%
"CC(C)c1ccc(Cl)cc1CN(C(=O)c1c(C(F)F)nn(C)c1F)C1CC1 [Isoflucypram, isoflucypram, reference compound]",(B) inhibition,Alternaria solani; [5],22%
same,(B) inhibition,Botrytis cinerea; [4],37%
"Cn1cc(C(=O)Nc2cccc3c2[C@@H]2CC[C@H]3C2=C(Cl)Cl)c(C(F)F)n1 (racemic) [Benzovindiflupyr, benzovindiflupyr]",(B) inhibition,Botrytis cinerea; [4],26%
same,(B) inhibition,Botrytis cinerea; [3],57%
"CO/C=C(/C(=O)OC)c1ccccc1Oc1cc(Oc2ccccc2C#N)ncn1 [Azoxystrobin, azoxystrobin]",(B) inhibition,"Botrytis cinerea; component (B) alone, 0.0313 ppm",31%
same,(B) inhibition,Botrytis cinerea; [6],61%
"COc1ccnc(C(=O)N[C@@H](C)C(=O)O[C@@H](C)C(c2ccc(F)cc2)c2ccc(F)cc2)c1OC(C)=O [Florylpicoxamid, florylpicoxamid]",(B) inhibition,"Botrytis cinerea; component (B) alone, 0.0625 ppm",56%
same,(B) inhibition,Botrytis cinerea; [6],59%
CC[C@@H](C)[C@@H]1NC(=O)[C@@H]2CCCN2C(=O)[C@H](Cc2ccccc2)N(C)C(=O)[C@H](Cc2ccccc2)NC(=O)[C@H](C(C)C)N(C)C(=O)[C@@H]([C@H](C)CC)OC(=O)[C@H](C(C)(C)O)N(C)C(=O)[C@H](CC(C)C)NC(=O)[C@H](C(C)C)N(C)C1=O [Aureobasidin A] (cyclo(F[NMeF]P[aIle][NMeV]L[NMeVal(β-OH)][X1][NMeV])),(A) inhibition,Alternaria solani; 0.0001 ppm,8% and 2% and 0%
same,(A) inhibition,Alternaria solani; 0.0002 ppm,2% and 0%
same,(A) inhibition,Alternaria solani; 0.0003 ppm,0% and 3%
same,(A) inhibition,Alternaria solani; 0.0006 ppm,9% and 6% and 0%
same,(A) inhibition,Alternaria solani; 0.0012 ppm,0%
same,(A) inhibition,Alternaria solani; 0.0025 ppm,2% and 1% and 0%
same,(A) inhibition,Alternaria solani; 0.005 ppm,12%
same,(A) inhibition,Alternaria solani; 0.0100 ppm,0%
same,(A) inhibition,Alternaria solani; 0.040 ppm,46%
same,(A) inhibition,Botrytis cinerea; 0.0002 ppm,0%
same,(A) inhibition,Botrytis cinerea; 0.0003 ppm,0% and 3%
same,(A) inhibition,Botrytis cinerea; 0.0006 ppm,0%
same,(A) inhibition,Botrytis cinerea; 0.0012 ppm,0% and 7% and 8%
same,(A) inhibition,Botrytis cinerea; 0.0100 ppm,23% and 25% and 24%
same,(A) inhibition,Botrytis cinerea; 0.0200 ppm,38% and 50% and 33%
same,(A) inhibition,Botrytis cinerea; 0.040 ppm,85%
"O=[N+]([O-])c1cc(C(F)(F)F)c(Cl)c([N+](=O)[O-])c1Nc1ncc(C(F)(F)F)cc1Cl [Fluazinam, fluazinam]",inhibition at 0.0003 ppm,"Alternaria solani; Alternaria solani, component (B) alone, 0.0003 ppm",11%
same,inhibition at 0.0025 ppm,"Alternaria solani; Alternaria solani, component (B) alone, 0.0025 ppm",11%
same,inhibition at 0.005 ppm,"Alternaria solani; Alternaria solani, component (B) alone, 0.0050 ppm",11%
same,inhibition at 0.0006 ppm,"Botrytis cinerea; Botrytis cinerea, component (B) alone, 0.0006 ppm",3%
same,inhibition at 0.0012 ppm,"Botrytis cinerea; Botrytis cinerea, component (B) alone, 0.0012 ppm",6%
same,inhibition at 0.0025 ppm,"Botrytis cinerea; Botrytis cinerea, component (B) alone, 0.0025 ppm",8%
same,inhibition at 0.005 ppm,"Botrytis cinerea; Botrytis cinerea, component (B) alone, 0.0050 ppm",6%
same,inhibition at 0.01 ppm,"Botrytis cinerea; Botrytis cinerea, component (B) alone, 0.0100 ppm",8%
"O=C(NCCc1ncc(C(F)(F)F)cc1Cl)c1ccccc1C(F)(F)F [Fluopyram, fluopyram, reference compound]",inhibition at 0.0313 ppm,Alternaria solani; [1],49%
same,inhibition at 0.0625 ppm,"Alternaria solani; Alternaria solani, component (B) alone, 0.0625 ppm",63%
same,inhibition at 0.125 ppm,"Botrytis cinerea; Botrytis cinerea, component (B) alone, 0.1250 ppm",42%
